Assay results taken from publication PMC5218480 (PLoS ONE, 2017).

Test system: MV-4-11 cells
Assay: Gene expression microarray analysis (Affymetrix PrimeView) and GSEA
Type: cell-based, human
Parameters: RFU PODN (11730768_x_at) / Fold change /veh PODN (11730768_x_at) / RFU LINC00158 (11744669_a_at) / Fold change /veh LINC00158 (11744669_a_at) / RFU DUSP10 (11751237_a_at) / Fold change /veh DUSP10 (11751237_a_at) / RFU ID3 (11757404_x_at) / Fold change /veh ID3 (11757404_x_at) / RFU PLEKHG5 (11737974_s_at) / Fold change /veh PLEKHG5 (11737974_s_at) / RFU LRRC4B (11730491_at) / Fold change /veh LRRC4B (11730491_at) / RFU GIMAP4 (11747438_a_at) / Fold change /veh GIMAP4 (11747438_a_at) / RFU KRT8 (11758183_x_at) / Fold change /veh KRT8 (11758183_x_at) / RFU CNN1 (11734310_a_at) / Fold change /veh CNN1 (11734310_a_at) / RFU VPS37D (11726825_at) / Fold change /veh VPS37D (11726825_at) / RFU C10orf10 (11716522_x_at) / Fold change /veh C10orf10 (11716522_x_at) / RFU KIR2DL2 /// KIR2DL4 /// KIR2DL5A /// KIR2DL5B /// KIR2DS1 /// KIR2DS2 /// KIR2DS3 /// KIR2DS4 /// KIR3DL3 /// KIR3DL3 /// KIR3DS1 (11738374_at) / Fold change /veh KIR2DL2 /// KIR2DL4 /// KIR2DL5A /// KIR2DL5B /// KIR2DS1 /// KIR2DS2 /// KIR2DS3 /// KIR2DS4 /// KIR3DL3 /// KIR3DL3 /// KIR3DS1 (11738374_at) / RFU C1QL1 (11718748_at) / Fold change /veh C1QL1 (11718748_at) / RFU TMPRSS4 (11747572_a_at) / Fold change /veh TMPRSS4 (11747572_a_at) / RFU HAMP (11756126_x_at) / Fold change /veh HAMP (11756126_x_at) / RFU RNFT2 (11725882_a_at) / Fold change /veh RNFT2 (11725882_a_at) / RFU NR4A2 (11747474_a_at) / Fold change /veh NR4A2 (11747474_a_at) / RFU ABCC12 (11746883_a_at) / Fold change /veh ABCC12 (11746883_a_at) / RFU TMEM136 (11760407_x_at) / Fold change /veh TMEM136 (11760407_x_at) / RFU CLDN22 /// WWC2 (11732394_at) / Fold change /veh CLDN22 /// WWC2 (11732394_at) / RFU HLA-DPB1 (11760878_x_at) / Fold change /veh HLA-DPB1 (11760878_x_at) / RFU SPINT1 (11716480_a_at) / Fold change /veh SPINT1 (11716480_a_at) / RFU GAP43 (11754022_s_at) / Fold change /veh GAP43 (11754022_s_at) / RFU A4GNT (11735810_at) / Fold change /veh A4GNT (11735810_at) / RFU PRB3 (11715151_x_at) / Fold change /veh PRB3 (11715151_x_at) / RFU TUBB4B (11761932_at) / Fold change /veh TUBB4B (11761932_at) / RFU CAPN14 (11732068_a_at) / Fold change /veh CAPN14 (11732068_a_at) / RFU TMCC2 (11721928_a_at) / Fold change /veh TMCC2 (11721928_a_at) / RFU IRGQ (11745062_a_at) / Fold change /veh IRGQ (11745062_a_at) / RFU FAM174B (11720279_a_at) / Fold change /veh FAM174B (11720279_a_at) / RFU TMPRSS4 (11748680_a_at) / Fold change /veh TMPRSS4 (11748680_a_at) / RFU FAM212B (11763350_a_at) / Fold change /veh FAM212B (11763350_a_at) / RFU PLEKHG5 (11743358_a_at) / Fold change /veh PLEKHG5 (11743358_a_at) / RFU ZSCAN30 (11745921_a_at) / Fold change /veh ZSCAN30 (11745921_a_at) / RFU CMKLR1 (11741424_a_at) / Fold change /veh CMKLR1 (11741424_a_at) / RFU LOC101060620 /// MAPK8IP1 (11723275_at) / Fold change /veh LOC101060620 /// MAPK8IP1 (11723275_at) / RFU SPTSSB (11747773_x_at) / Fold change /veh SPTSSB (11747773_x_at) / RFU PRSS12 (11739890_at) / Fold change /veh PRSS12 (11739890_at) / RFU BIN1 (11741810_x_at) / Fold change /veh BIN1 (11741810_x_at) / RFU WNT11 (11732464_a_at) / Fold change /veh WNT11 (11732464_a_at) / RFU C10orf10 (11716521_a_at) / Fold change /veh C10orf10 (11716521_a_at) / RFU C5orf56 (11738089_at) / Fold change /veh C5orf56 (11738089_at) / RFU CYB561 (11721691_x_at) / Fold change /veh CYB561 (11721691_x_at) / RFU ANKRD19P (11752326_a_at) / Fold change /veh ANKRD19P (11752326_a_at) / RFU OR2T12 /// OR2T33 /// OR2T8 (11738714_s_at) / Fold change /veh OR2T12 /// OR2T33 /// OR2T8 (11738714_s_at) / RFU VCAN (11748164_a_at) / Fold change /veh VCAN (11748164_a_at) / RFU JSRP1 (11732532_at) / Fold change /veh JSRP1 (11732532_at) / RFU KRTAP10-11 (11738290_x_at) / Fold change /veh KRTAP10-11 (11738290_x_at) / RFU MYO3A (11730013_a_at) / Fold change /veh MYO3A (11730013_a_at) / RFU EBF3 (11725865_a_at) / Fold change /veh EBF3 (11725865_a_at) / RFU CAMK2N1 (11719241_x_at) / Fold change /veh CAMK2N1 (11719241_x_at) / RFU C5orf56 (11738088_a_at) / Fold change /veh C5orf56 (11738088_a_at) / RFU OLFML3 (11715873_a_at) / Fold change /veh OLFML3 (11715873_a_at) / RFU LOC100653217 /// NTM (11731650_a_at) / Fold change /veh LOC100653217 /// NTM (11731650_a_at) / RFU MAPK11 (11762145_a_at) / Fold change /veh MAPK11 (11762145_a_at) / RFU FIZ1 (11724087_x_at) / Fold change /veh FIZ1 (11724087_x_at) / RFU OASL (11726364_x_at) / Fold change /veh OASL (11726364_x_at) / RFU SOX15 (11748057_x_at) / Fold change /veh SOX15 (11748057_x_at) / RFU CD79A (11719716_a_at) / Fold change /veh CD79A (11719716_a_at) / RFU HIST1H1D (11736915_at) / Fold change /veh HIST1H1D (11736915_at) / RFU CASKIN2 (11723855_a_at) / Fold change /veh CASKIN2 (11723855_a_at) / RFU LOC730098 (11760151_x_at) / Fold change /veh LOC730098 (11760151_x_at) / RFU OR4N2 (11742367_at) / Fold change /veh OR4N2 (11742367_at) / RFU PRRT2 (11749266_a_at) / Fold change /veh PRRT2 (11749266_a_at) / RFU SNX32 (11753110_a_at) / Fold change /veh SNX32 (11753110_a_at) / RFU CDHR5 (11726645_a_at) / Fold change /veh CDHR5 (11726645_a_at) / RFU RCAN1 (11760418_a_at) / Fold change /veh RCAN1 (11760418_a_at) / RFU FAM167A (11723789_a_at) / Fold change /veh FAM167A (11723789_a_at) / RFU FAM26E (11764081_at) / Fold change /veh FAM26E (11764081_at) / RFU ISYNA1 (11749810_s_at) / Fold change /veh ISYNA1 (11749810_s_at) / RFU ACY1 (11761880_at) / Fold change /veh ACY1 (11761880_at) / RFU 11764098_at / Fold change /veh 11764098_at / RFU SAMD14 (11745864_x_at) / Fold change /veh SAMD14 (11745864_x_at) / RFU NPB (11741838_a_at) / Fold change /veh NPB (11741838_a_at) / RFU TMPRSS6 (11731388_a_at) / Fold change /veh TMPRSS6 (11731388_a_at) / RFU KRTAP10-2 (11738614_at) / Fold change /veh KRTAP10-2 (11738614_at) / RFU ARHGAP8 /// PRR5-ARHGAP8 (11727945_x_at) / Fold change /veh ARHGAP8 /// PRR5-ARHGAP8 (11727945_x_at) / RFU KRTAP5-7 /// NADSYN1 (11734609_at) / Fold change /veh KRTAP5-7 /// NADSYN1 (11734609_at) / RFU RASL12 (11751679_a_at) / Fold change /veh RASL12 (11751679_a_at) / RFU CDKN2B (11736163_a_at) / Fold change /veh CDKN2B (11736163_a_at) / RFU PRF1 (11729649_at) / Fold change /veh PRF1 (11729649_at) / RFU, ZNF638 /// ZNF638-IT1 / Fold change vs veh, ZNF638 /// ZNF638-IT1 / RFU, PANK3 / Fold change vs veh, PANK3 / RFU, SH3YL1 / Fold change vs veh, SH3YL1 / RFU, ZEB2 / Fold change vs veh, ZEB2 / RFU, NRIP1 / Fold change vs veh, NRIP1 / RFU, PTTG1IP / Fold change vs veh, PTTG1IP / RFU, CAPN2 / Fold change vs veh, CAPN2 / RFU, MED14 / Fold change vs veh, MED14 / RFU, SNORA58 / Fold change vs veh, SNORA58 / RFU, C1orf63 / Fold change vs veh, C1orf63 / RFU, LRRFIP1 / Fold change vs veh, LRRFIP1 / RFU, NDUFAF7 / Fold change vs veh, NDUFAF7 / RFU, SLC12A2 / Fold change vs veh, SLC12A2 / RFU, IBTK / Fold change vs veh, IBTK / RFU, ESF1 / Fold change vs veh, ESF1 / Fold change vs veh, TMEM50B / RFU, TAOK1 / Fold change vs veh, TAOK1 / RFU, ACBD3 / Fold change vs veh, ACBD3 / RFU, TMA16 / Fold change vs veh, TMA16 / RFU, RWDD3 / Fold change vs veh, RWDD3 / RFU, BCAT1 / Fold change vs veh, BCAT1 / RFU, EDEM3 / Fold change vs veh, EDEM3 / RFU, TMEM33 / Fold change vs veh, TMEM33 / RFU, WDR75 / Fold change vs veh, WDR75 / RFU, AHCTF1 / Fold change vs veh, AHCTF1 / RFU, TFRC / Fold change vs veh, TFRC / RFU, ZDHHC17 / Fold change vs veh, ZDHHC17 / RFU, NOM1 / Fold change vs veh, NOM1 / RFU, ARL8B / Fold change vs veh, ARL8B / RFU, ZBTB11 / Fold change vs veh, ZBTB11 / RFU, TAMM41 / Fold change vs veh, TAMM41 / RFU, KIAA1704 /// LOC100996395 / Fold change vs veh, KIAA1704 /// LOC100996395 / RFU, ING1 / Fold change vs veh, ING1 / RFU, TRMT61B / Fold change vs veh, TRMT61B / RFU, FUBP3 / Fold change vs veh, FUBP3 / RFU, TP53 / Fold change vs veh, TP53 / RFU, TNKS2 / Fold change vs veh, TNKS2 / RFU, ZFP14 / Fold change vs veh, ZFP14 / RFU, ACTR2 / Fold change vs veh, ACTR2 / RFU, PPP3R1 / Fold change vs veh, PPP3R1 / RFU, PIK3R1 / Fold change vs veh, PIK3R1 / RFU, HNRNPA1 / Fold change vs veh, HNRNPA1 / RFU, RNF170 / Fold change vs veh, RNF170 / RFU, ZNF28 / Fold change vs veh, ZNF28 / RFU, RNGTT / Fold change vs veh, RNGTT / RFU, OGT / Fold change vs veh, OGT / RFU, BRD1 / Fold change vs veh, BRD1 / RFU, MARS / Fold change vs veh, MARS / RFU, ZNF655 / Fold change vs veh, ZNF655 / RFU, FAHD1 / Fold change vs veh, FAHD1 / RFU, BDP1 / Fold change vs veh, BDP1 / RFU, LRRCC1 / Fold change vs veh, LRRCC1 / RFU, ARID1A / Fold change vs veh, ARID1A / RFU, ZNF146 / Fold change vs veh, ZNF146 / RFU, ZNF330 / Fold change vs veh, ZNF330 / RFU, GPN3 / Fold change vs veh, GPN3 / RFU, C9orf123 / Fold change vs veh, C9orf123 / RFU, N4BP2L2 / Fold change vs veh, N4BP2L2 / RFU, ARFIP1 / Fold change vs veh, ARFIP1 / RFU, FAM179B / Fold change vs veh, FAM179B / RFU, BCL10 / Fold change vs veh, BCL10 / RFU, UHRF1BP1L / Fold change vs veh, UHRF1BP1L / RFU, BET1 / Fold change vs veh, BET1 / RFU, CNOT2 / Fold change vs veh, CNOT2 / RFU, ZNF268 / Fold change vs veh, ZNF268 / Fold change vs veh, ZNF507 / RFU, DGCR2 / Fold change vs veh, DGCR2 / RFU, WDSUB1 / Fold change vs veh, WDSUB1 / Fold change vs veh, HSP90B1 /// MIR3652 / RFU, ADSS / Fold change vs veh, ADSS / RFU, GK / Fold change vs veh, GK / RFU, ZNF148 / Fold change vs veh, ZNF148 / RFU, TAF9 / Fold change vs veh, TAF9 / RFU, SLC1A5 / Fold change vs veh, SLC1A5 / RFU, SLMO2 / Fold change vs veh, SLMO2 / RFU, ABCC4 / Fold change vs veh, ABCC4 / RFU, LOC101060439 /// RAP1B / Fold change vs veh, LOC101060439 /// RAP1B / RFU, RFX7 / Fold change vs veh, RFX7 / RFU, GTPBP10 / Fold change vs veh, GTPBP10 / RFU, CNEP1R1 / Fold change vs veh, CNEP1R1 / RFU, BIVM-ERCC5 /// ERCC5 / Fold change vs veh, BIVM-ERCC5 /// ERCC5 / RFU, ILF3 / Fold change vs veh, ILF3 / RFU 11762660_at / Fold change /veh 11762660_at / RFU VCAN (11757783_s_at) / Fold change /veh VCAN (11757783_s_at) / RFU DDX43 (11728927_at) / Fold change /veh DDX43 (11728927_at) / RFU KRT8 (11758188_x_at) / Fold change /veh KRT8 (11758188_x_at) / RFU NKD1 (11759106_at) / Fold change /veh NKD1 (11759106_at) / RFU SRD5A1 (11742802_a_at) / Fold change /veh SRD5A1 (11742802_a_at) / RFU TPSAB1 /// TPSB2 (11721975_s_at) / Fold change /veh TPSAB1 /// TPSB2 (11721975_s_at) / RFU GSTM3 (11746129_a_at) / Fold change /veh GSTM3 (11746129_a_at) / RFU IL23R (11737362_x_at) / Fold change /veh IL23R (11737362_x_at) / RFU TMEM51 (11727254_a_at) / Fold change /veh TMEM51 (11727254_a_at) / RFU PIWIL2 (11732686_x_at) / Fold change /veh PIWIL2 (11732686_x_at) / RFU ORM1 (11744905_x_at) / Fold change /veh ORM1 (11744905_x_at) / RFU CCDC152 (11743942_at) / Fold change /veh CCDC152 (11743942_at) / RFU ECM1 (11717891_a_at) / Fold change /veh ECM1 (11717891_a_at) / RFU IL23R (11748794_a_at) / Fold change /veh IL23R (11748794_a_at) / RFU TNFAIP8L3 (11732012_x_at) / Fold change /veh TNFAIP8L3 (11732012_x_at) / RFU MBOAT4 (11741988_at) / Fold change /veh MBOAT4 (11741988_at) / RFU 11764193_at / Fold change /veh 11764193_at / RFU TMEM53 (11763286_at) / Fold change /veh TMEM53 (11763286_at) / RFU MAGEB2 (11727129_at) / Fold change /veh MAGEB2 (11727129_at) / RFU TMEM200A (11744735_a_at) / Fold change /veh TMEM200A (11744735_a_at) / RFU CCDC152 (11751479_a_at) / Fold change /veh CCDC152 (11751479_a_at) / RFU FAM211A (11726209_a_at) / Fold change /veh FAM211A (11726209_a_at) / RFU RGS16 (11746705_a_at) / Fold change /veh RGS16 (11746705_a_at) / RFU VCAN (11755009_s_at) / Fold change /veh VCAN (11755009_s_at) / RFU RHOB (11743442_s_at) / Fold change /veh RHOB (11743442_s_at) / RFU RGS16 (11720943_a_at) / Fold change /veh RGS16 (11720943_a_at) / RFU RGS16 (11720944_at) / Fold change /veh RGS16 (11720944_at) / RFU, VPS4B / Fold change vs veh, VPS4B / RFU, CREB1 / Fold change vs veh, CREB1 / RFU, DNAJC13 / Fold change vs veh, DNAJC13 / RFU, GNAQ / Fold change vs veh, GNAQ / RFU, CDK5R1 / Fold change vs veh, CDK5R1 / RFU, ZRANB3 / Fold change vs veh, ZRANB3 / RFU, CUL4A / Fold change vs veh, CUL4A / RFU, CCNY / Fold change vs veh, CCNY / RFU, UFL1 / Fold change vs veh, UFL1 / RFU, COG3 / Fold change vs veh, COG3 / RFU, DIAPH2 / Fold change vs veh, DIAPH2 / RFU, SKA2 / Fold change vs veh, SKA2 / RFU, AFF3 / Fold change vs veh, AFF3 / RFU, LMF1 / Fold change vs veh, LMF1 / RFU, IPO11 / Fold change vs veh, IPO11 / RFU, DFFB / Fold change vs veh, DFFB / RFU, FOXP1 / Fold change vs veh, FOXP1 / RFU, CARD8 / Fold change vs veh, CARD8 / RFU, STRN3 / Fold change vs veh, STRN3 / RFU, ADK / Fold change vs veh, ADK / RFU, RASSF2 / Fold change vs veh, RASSF2 / RFU, WIPF1 / Fold change vs veh, WIPF1 / RFU, LARP1B / Fold change vs veh, LARP1B / RFU, RASA1 / Fold change vs veh, RASA1 / RFU, RB1 / Fold change vs veh, RB1 / RFU, PPFIA1 / Fold change vs veh, PPFIA1 / RFU, MAT2A / Fold change vs veh, MAT2A / RFU, CCT5 / Fold change vs veh, CCT5 / RFU, WDR92 / Fold change vs veh, WDR92 / RFU, CUX1 / Fold change vs veh, CUX1 / RFU, TTC7A / Fold change vs veh, TTC7A / RFU, TMEM135 / Fold change vs veh, TMEM135 / RFU, DEPTOR / Fold change vs veh, DEPTOR / RFU, CPM / Fold change vs veh, CPM / RFU, DNAJB6 / Fold change vs veh, DNAJB6 / RFU, CACNA2D3 / Fold change vs veh, CACNA2D3 / RFU, DTX4 / Fold change vs veh, DTX4 / RFU, TFCP2 / Fold change vs veh, TFCP2 / RFU, GMCL1 /// GMCL1P1 / Fold change vs veh, GMCL1 /// GMCL1P1 / RFU, AEBP2 / Fold change vs veh, AEBP2 / RFU, SNHG1 /// SNORD22 /// SNORD25 /// SNORD26 /// SNORD27 /// SNORD28 /// SNORD29 /// SNORD31 / Fold change vs veh, SNHG1 /// SNORD22 /// SNORD25 /// SNORD26 /// SNORD27 /// SNORD28 /// SNORD29 /// SNORD31 / Fold change (Aza/veh), C12orf56 (ProbeSet 11735607_a_at) / Fold change (ACY-1035/veh), C12orf56 (ProbeSet 11735607_a_at) / Fold change (Aza/veh), FGFR1OP (ProbeSet 11751329_s_at) / Fold change (ACY-1035/veh), FGFR1OP (ProbeSet 11751329_s_at) / Fold change (Aza/veh), VPS36 (ProbeSet 11739960_a_at) / Fold change (ACY-1035/veh), VPS36 (ProbeSet 11739960_a_at) / RFU SYPL1 (11715823_x_at) / Fold change /veh SYPL1 (11715823_x_at) / RFU IGFBP7 (11715501_s_at) / Fold change /veh IGFBP7 (11715501_s_at) / RFU REEP3 (11722064_at) / Fold change /veh REEP3 (11722064_at) / RFU IGLL1 (11728026_x_at) / Fold change /veh IGLL1 (11728026_x_at): dose or concentration left out as unconfirmed
Settings: MV-4-11 cells, 48 hours

**Q.** Which “Fold change /veh CDHR5 (11726645_a_at)” value does the source give for Nc1ncn([C@@H]2O[C@H](CO)[C@@H](O)[C@H]2O)c(=O)n1 [azacitidine] here?
**A.** 1.19
